Reference: patent USRE35801E, “Prophylactic and therapeutic composition for circulatory disorders and method of treatment” (priority 1985, dated 1998)

Legend:
[1] = test system: drowsy pattern of electroencephalogram induced by phenobarbital or pentobarbital sodium salt; assay: Antagonistic action against drowsy pattern of electroencephalogram induced by phenobarbital or pentobarbital sodium salt; type: in vivo, Wistar-strain male rat; conditions: Rattus norvegicus; intravenous, sodium salt; drowsy EEG after PHB 30 mg/kg or PBT 5 mg/kg; read-out: Antagonistic action at dose or higher
Procedure: (2) Antagonistic action against drowsy pattern of so electroencephalogram induced by phenobarbital or pentobarbital sodium salt
A Wistar-strain male rat weighing about 400 g was intramasculary administered with 0.6 mg of d-tubocurarine to be immobilized and, while maintaining the rectal temperature at 37° to 38° C. under artificial respiration, the electroencephalogram of the left cerebral frontal cortex was measured and recorded. Also, within the left femoral artery and vein, cannulas for measurement of artery pressure and for administration of medicine were placed, respectively.
As the active ingredient of the present invention, sodium salt of the compound represented by Formula (I) was used and the respective doses of said active ingredient and 30 mg/kg of phenobarbital sodium salt (produced by Iwaki Seiyaku K.K.) (hereinafter called "PHB") or 5 mg/kg of pentobarbital sodium salt (hereinafter called PBT) were each dissolved in physiological saline and administered intravenously in a liquid amount of 1 ml/kg.
The action of the active ingredient of the present invention affecting the cortex electroencephalogram after PHB or PBT administration was investigated as follows; Namely, at the time of 5 minutes or later after PHB or PBT administration when increase of the slow-wave component can be clearly recognized on electroencephalogram, 1, 3, 10, 30 and 100 mg/kg of the active ingredient were administered. To the control group 1 ml/kg of physiological saline was intravenously administered.
Recording and analysis of electroencephalogram were continuously drawn together with artery pressure, heart rate and rectal temperature on the recorder through a multi-purpose monitoring recording device (model RM-85, produced by Nippon Koden K.K.). At the same time, electroencephalogram was recorded in data recorder (model A-65, produced by Sony K.K.), and compressed spectral array analysis was conducted by means of a computer for medical data processing (ATAC-450, produced by Nippon Koden K.K.).

[2] = test system: myocardial ischemia (isolated heart, cardiac output); assay: Protective action for myocardial ischemia (isolated perfused working heart); parameters: species or system Wistar strain male rats
From the text: Protective action for myocardial ischemia
When coronary blood flow transporting nutritions to cardiac muscles is interrupted (disorder in blood flow) or recirculated (disorder in recirculation) by a certain cause, cardiac muscles will be damaged (disorder of mycardial ischemia). The degree of such disorder in cardiac muscles will be advanced as the period of ischemia state is prolonged to cause various ischemic cardiac disorders such as the so-called myocardial infarction and cardiac insufficiency.
Accordingly, the protective effect of the Compound No. 1, as a typical compound, on cardiac muscles were examined as described below.
In the experiment, Wistar strain male rats weighing 300 to 400 g were used. The heart was extirpated into a Krebs-Henseleit bicarbonate (KH) solution which had been oxygenated with 95% O2 -5% CO2, under anesthesia by intraperitoneal administration of 50 mg/kg of pentobarbital sodium. Immediately after the isolation, a cannula was intubated into the aorta ascendens, and perfusion was started according to the Langendorff method (75 cm H2 O). Subsequently, the cannula was intubated into the left artium. Then, perfusion in accordance with the Langerdorff method was further conducted for 10 minutes, and then the left artium cannula was opened change the mode of perfusion to that of the working heart method (preload 10 cm H2 O, afterload 80 cm H2 O) (American Journal of Physiology, 212, 804, 1967), which was conducted for 15 minutes. Next, in accordance with the method of Ichihara et al (Journal of Cardiovascular Pharmacology, 5, 745, 1983), the afterload on the aorta was released to provide an ischemic state in the cardiac muscles for 20 minutes. Since five minutes before the initiation of the ischemic state, the perfusate was changed to the one containing the test medicine and such perfusate was used also during the period of the ischemic state. Reperfusion was conducted for 30 minutes with a perfusate containing no test medicine with the afterload of 80 cm H2 O. In order to determine the cardiac functions, coronal perfusion flow (CF), cardiac output (CO), heart rate (HR), aorta pressure (AP) and rate pressure product (HR×AP) were measured. The CF was measured by use of a 10 ml measuring cylinder. The CO was measured through a direct blood flow measuring probe (Model FF-030, 30, produced by Nihon Kohden K.K.) disposed immediately in front of the left artium cannula, by use of an electromagnetic blood flow meter (Model MFV-2100, produced by Nihon Kohden K.K.) and an amplifier for bioelectricity (Mode AB-621G, produced by Nihon Kohden K.K,). The AP was measured through a pressure transducer (Model MPU-0.5, produced by Nihon Kohden K.K.) connected to the aortic cannula, by use of an amplifier for distortion pressure (Model AP-601G, produced by Nihon Kohden K.K.). The HR was measured by use of an cardiotacho meter (Model AT-601G, produced by Nihon Kohden K.K.). The rate pressure product (HR×AP) was calculated by multiplying the HR by the aortic pressure.
As the perfusate, a KH solution, which had been oxygenated with 95% O2 -5% CO2 and heated to 37° C. was used. The formulation of the KH solution (unit: mM) is as follows. NaCl 118, KCl 4.7, CaCl2 2.5, MgSO4 1.2, KH2 PO4 1.2, NaHCO3 25 and glucose 11. […]
Changes in the cardiac functions after treatment with the test medicine and recovery thereof at reperfusion are indicated in terms of percentage based on the value measured before the treatment with the test medicine. […]

SMILES: CC1=NN(c2ccccc2)C(=O)C1 [Compound 1, 3-methyl-1-phenyl-2-pyrazolin-5-one]
- minimal effective dose [1]: ≥ 1 mg/kg
- protective action for myocardial ischemia (in words) [2]: exhibits protective action for myocardial ischemia
- Recovery of the cardiac output (CO) ([2]; 10^-5 M, 30 minutes after reperfusion after 20 min ischemia, N = 5, mean ± standard error (Table 5)): 23.8 ± 14.6%
- Recovery of the cardiac functions (CO 50% or more), percentage ([2]; 30 minutes after reperfusion): 40%
- average recovery action based on the cardiac output (CO) ([2]; 30 minutes after reperfusion after 20 min cardiac ischemia): 24%
- Number of recovery of the cardiac functions (CO 50% or more) ([2]; hearts recovered/total, 30 minutes after reperfusion): 2/5
